In PubChem BioAssay AID624167 (Sanford-Burnham Center for Chemical Genomics, 2012):
The source made the active and inactive calls.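 The calls were made as follows: active = mean IC50 for reducing PEG3 promoter reporter signal at or below a set limit, with IC50 above the limit in both counter screens; inactive = the rest, including counter screen hits.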

Experiments:
PEG-3 [1] = assay: inhibition of PEG-3 promoter-driven reporter – cell-based, HeLa, luciferase, CREF/GAPDH counter-screen panel, dose response (AID 624167); conditions: HeLa PEG-Prom luciferase reporter, overnight, CREF/GAPDH counter-screens
PEG-3 [2] = target: PEG-3 (UniProt Q6IN02); assay: as above; conditions: HeLa PEG-Prom luciferase reporter, overnight, CREF/GAPDH counter-screens, mean of runs
[3] = run 1, dose range 1, individual replicate IC50 per panel
[4] = run 2, dose range 1, individual replicate IC50 per panel

PEG-3 (UniProt Q6IN02), sequence (Q6IN02 whole entry, looked up): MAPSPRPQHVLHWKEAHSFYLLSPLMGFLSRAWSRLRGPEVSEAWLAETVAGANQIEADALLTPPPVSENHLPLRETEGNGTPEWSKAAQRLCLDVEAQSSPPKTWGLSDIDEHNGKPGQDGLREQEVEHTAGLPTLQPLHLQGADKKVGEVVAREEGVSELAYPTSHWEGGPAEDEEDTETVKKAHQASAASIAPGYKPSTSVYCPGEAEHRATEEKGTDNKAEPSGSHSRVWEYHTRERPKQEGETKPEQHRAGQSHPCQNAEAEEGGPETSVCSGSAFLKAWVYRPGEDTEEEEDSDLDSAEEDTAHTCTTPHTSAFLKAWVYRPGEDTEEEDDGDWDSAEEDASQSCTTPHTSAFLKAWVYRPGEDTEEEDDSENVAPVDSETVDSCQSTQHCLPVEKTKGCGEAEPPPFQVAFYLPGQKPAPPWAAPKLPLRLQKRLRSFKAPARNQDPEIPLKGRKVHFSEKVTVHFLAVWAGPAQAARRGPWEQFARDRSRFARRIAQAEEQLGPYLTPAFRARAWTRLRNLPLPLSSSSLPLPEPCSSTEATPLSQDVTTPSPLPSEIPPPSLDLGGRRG

## Cc1nc(N2CCN(c3ccccc3O)CC2)c2c(-c3ccccc3)csc2n1
PEG-3 [1]; [3]
  IC50: 29 µM
PEG-3 [1]; [4]
  IC50: 24.6 µM
PEG-3 [2]
  IC50: inactive

## N#C/C(=C\c1cccc([N+](=O)[O-])c1)C(=O)NCc1ccc(Cl)cc1
PEG-3 [1]; [3]
  IC50: 14.7 µM
PEG-3 [1]; [4]
  IC50: 13.4 µM
PEG-3 [2]
  IC50: 14 µM

## O=S(=O)(NC1CC(NS(=O)(=O)OCC(Cl)(Cl)Cl)C2CCCCC12)OCC(Cl)(Cl)Cl (centres undefined)
PEG-3 [1]; [3]
  IC50: 10.8 µM
PEG-3 [1]; [4]
  IC50: 11.9 µM
PEG-3 [2]
  IC50: 11.4 µM

## CN1CCC(N(C)C(=O)/C=C/c2cn(-c3ccccc3)nc2-c2cccs2)CC1
PEG-3 [1]; [3]
  IC50: 18.4 µM
PEG-3 [1]; [4]
  IC50: 19.7 µM
PEG-3 [2]
  IC50: 19 µM

## CCC1=C(CC2NCCc3ccccc32)CC2c3cc(OC)c(OC)cc3CCN2C1 (centres undefined)
PEG-3 [1]; [3]
  IC50: 15.1 µM
PEG-3 [1]; [4]
  IC50: 13.3 µM
PEG-3 [2]
  IC50: 14.2 µM

## CN(Cc1ccccc1)C(=O)c1ccc(Nc2nc(C(N)Cc3ccccc3)cs2)nc1 (centres undefined)
PEG-3 [1]; [3]
  IC50: 21.8 µM
PEG-3 [1]; [4]
  IC50: 14.8 µM
PEG-3 [2]
  IC50: 18.3 µM

## Cc1ccc2[nH]c(=O)c(C3C(C#N)=C(N)Oc4c3ccc3cccnc43)cc2c1 (centres undefined)
PEG-3 [1]; [3]
  IC50: 28.3 µM
PEG-3 [1]; [4]
  IC50: 21.7 µM
PEG-3 [2]
  IC50: inactive

## CN1CCC(NC(=O)c2cc(-c3cccc(Br)c3)nc3ccccc23)CC1
PEG-3 [1]; [3]
  IC50: 20.9 µM
PEG-3 [1]; [4]
  IC50: 15.1 µM
PEG-3 [2]
  IC50: 18 µM

## CCc1nc(Sc2nnnn2-c2ccccc2)c2c3c(sc2n1)CCCC3
PEG-3 [1]; [3]
  IC50: 24.7 µM
PEG-3 [1]; [4]
  IC50: 16.3 µM
PEG-3 [2]
  IC50: inactive

## COc1ccc(-c2cc(C(=O)N3CCN(c4ncccn4)CC3)c3ccccc3n2)c(OC)c1
PEG-3 [1]; [3]
  IC50: 39.3 µM
PEG-3 [1]; [4]
  IC50: 98.5 µM
PEG-3 [2]
  IC50: inactive

## COc1ccc(CC(N)c2csc(NC(=O)Nc3cc(OC)ccc3OC)n2)cc1 (centres undefined)
PEG-3 [1]; [3]
  IC50: 16.5 µM
PEG-3 [1]; [4]
  IC50: 15.6 µM
PEG-3 [2]
  IC50: 16 µM

## O=C1N[C@@H](c2ccccc2)COC(=O)[C@@H](Cc2ccc(F)cc2)CC/C=C/C[C@H]1CC(=O)N(CCO)Cc1ccccc1
PEG-3 [1]; [3]
  IC50: 41 µM
PEG-3 [1]; [4]
  IC50: > 100 µM
PEG-3 [2]
  IC50: inactive

## COc1cc(/C=C/[N+](=O)[O-])ccc1OC(=O)/C=C/c1ccc(F)cc1
PEG-3 [1]; [3]
  IC50: > 100 µM
PEG-3 [1]; [4]
  IC50: > 100 µM
PEG-3 [2]
  IC50: > 100 µM (inactive)

## COc1ccc(C)cc1Nc1n[n+](-c2ccccc2)c(-c2ccc(N(C)C)cc2)s1
PEG-3 [1]; [3]
  IC50: 36.3 µM
PEG-3 [1]; [4]
  IC50: 65.2 µM
PEG-3 [2]
  IC50: inactive

## COc1cccc(CN(C)C(=O)c2cc(-c3cccs3)nc3ccccc23)c1
PEG-3 [1]; [3]
  IC50: 24.7 µM
PEG-3 [1]; [4]
  IC50: 30.8 µM
PEG-3 [2]
  IC50: inactive

## COc1ccc(CC(=O)N(Cc2ccccc2)c2ccccc2)cc1S(=O)(=O)N1CCOCC1
PEG-3 [1]; [3]
  IC50: 50.5 µM
PEG-3 [1]; [4]
  IC50: > 100 µM
PEG-3 [2]
  IC50: inactive

## O=Cc1cn(Cc2ccc(F)cc2)c2ccccc12
PEG-3 [1]; [3]
  IC50: 12.5 µM
PEG-3 [1]; [4]
  IC50: 24.1 µM
PEG-3 [2]
  IC50: 18.3 µM

## CCN(CC)CCN1CCN(c2cncc(-c3ccc4ccccc4c3)n2)CC1
PEG-3 [1]; [3]
  IC50: 34.4 µM
PEG-3 [1]; [4]
  IC50: 11.9 µM
PEG-3 [2]
  IC50: inactive

## COc1cccc2c1C(=N)c1c(O)c3c(c(O)c1C2=O)CC(O)(C(C)=O)CC3OC1CC(N)C(O)C(C)O1 (centres undefined)
PEG-3 [1]; [3]
  IC50: 15.7 µM
PEG-3 [1]; [4]
  IC50: 7.56 µM
PEG-3 [2]
  IC50: 11.6 µM

## CCC(=O)NC(c1cccs1)c1cc([N+](=O)[O-])c2cccnc2c1O (centres undefined)
PEG-3 [1]; [3]
  IC50: 12.4 µM
PEG-3 [1]; [4]
  IC50: 11.7 µM
PEG-3 [2]
  IC50: 12.1 µM

## CCn1cc(C(=O)NCCC(C)C)c(=O)c2cc(F)c(N3CCN(C(=O)c4ccco4)CC3)cc21
PEG-3 [1]; [3]
  IC50: 37.8 µM
PEG-3 [1]; [4]
  IC50: > 100 µM
PEG-3 [2]
  IC50: inactive

## COCCn1c(C)cc(C2=NNC(=NC3CC3)SC2)c1C
PEG-3 [1]; [3]
  IC50: 1.32 µM
PEG-3 [1]; [4]
  IC50: < 0.2 µM
PEG-3 [2]
  IC50: 0.76 µM

## NC(=O)C1CCN(C2=C(Cl)C(=O)c3ccccc3C2=O)CC1
PEG-3 [1]; [3]
  IC50: 17.9 µM
PEG-3 [1]; [4]
  IC50: 16.6 µM
PEG-3 [2]
  IC50: 17.3 µM

## CCCCCCCn1c(=N)n(CC(O)c2ccco2)c2ccccc21 (centres undefined)
PEG-3 [1]; [3]
  IC50: 22 µM
PEG-3 [1]; [4]
  IC50: 22.2 µM
PEG-3 [2]
  IC50: inactive

## CCCN(CC(=O)Nc1ccccc1C)C(=O)CCl
PEG-3 [1]; [3]
  IC50: 56.1 µM
PEG-3 [1]; [4]
  IC50: > 100 µM
PEG-3 [2]
  IC50: inactive

## CN1OC[C@@H]2CN[C@H](c3ccc(-c4cc5ccccc5o4)cc3)C[C@@H]21
PEG-3 [1]; [3]
  IC50: 24.9 µM
PEG-3 [1]; [4]
  IC50: 12.6 µM
PEG-3 [2]
  IC50: 18.8 µM

## CCN1CCc2c(sc(NC(=O)c3ccc(S(=O)(=O)N4CCCCCC4)cc3)c2C(=O)NC)C1
PEG-3 [1]; [3]
  IC50: 21.2 µM
PEG-3 [1]; [4]
  IC50: 24.5 µM
PEG-3 [2]
  IC50: inactive

## CC(=O)NC(c1ccccc1)c1cc(Cl)c2cccnc2c1O (centres undefined)
PEG-3 [1]; [3]
  IC50: 6.33 µM
PEG-3 [1]; [4]
  IC50: 12.7 µM
PEG-3 [2]
  IC50: 9.5 µM

## Cc1cc2c(c(/C=C/C(=O)c3ccccc3)c1)OC1(C=C2)Oc2ccccc2C(=O)N1C (centres undefined)
PEG-3 [1]; [3]
  IC50: 20.4 µM
PEG-3 [1]; [4]
  IC50: 15.5 µM
PEG-3 [2]
  IC50: 18 µM

## COc1ccc(C(O)(CC(C)C)C(CN2CCOCC2)c2ccccc2)cc1 (centres undefined)
PEG-3 [1]; [3]
  IC50: > 100 µM
PEG-3 [1]; [4]
  IC50: 6.84 µM
PEG-3 [2]
  IC50: inactive

## CC(C)CC(N)c1csc(NC(=O)Nc2ccccc2C(C)C)n1 (centres undefined)
PEG-3 [1]; [3]
  IC50: 30.1 µM
PEG-3 [1]; [4]
  IC50: 1.37 µM
PEG-3 [2]
  IC50: 15.7 µM

## CCN(CC)CCOc1ccc(/C(=C(/Cl)c2ccccc2)c2ccccc2)cc1
PEG-3 [1]; [3]
  IC50: 22.4 µM
PEG-3 [1]; [4]
  IC50: 11.6 µM
PEG-3 [2]
  IC50: 17 µM

## C[C@@H](C(=O)Nc1ccc2c(c1)OCCO2)n1c(=O)[nH]c2ccccc2c1=O
PEG-3 [1]; [3]
  IC50: 11.8 µM
PEG-3 [1]; [4]
  IC50: > 100 µM
PEG-3 [2]
  IC50: inactive

## COc1ccc(Nc2nc(-c3ccccc3)nc3ccccc23)cc1S(=O)(=O)N1CCOCC1
PEG-3 [1]; [3]
  IC50: 9.14 µM
PEG-3 [1]; [4]
  IC50: 33.9 µM
PEG-3 [2]
  IC50: inactive

## COC(=O)c1c(NC(=O)c2ccc([N+](=O)[O-])o2)sc2c1CCN(C(C)C)C2
PEG-3 [1]; [3]
  IC50: 19.2 µM
PEG-3 [1]; [4]
  IC50: 11.8 µM
PEG-3 [2]
  IC50: 15.5 µM

## COCCn1c(C)cc(C(=O)CSc2nnc3ccccn23)c1C
PEG-3 [1]; [3]
  IC50: 8.34 µM
PEG-3 [1]; [4]
  IC50: 21.8 µM
PEG-3 [2]
  IC50: 15.1 µM

## COc1cc(/C=C/c2ccc3cccc(O)c3n2)ccc1O
PEG-3 [1]; [3]
  IC50: > 100 µM
PEG-3 [1]; [4]
  IC50: > 100 µM
PEG-3 [2]
  IC50: > 100 µM (inactive)

## CCOC(=O)CN(C(=O)CSc1nnc2c(n1)[nH]c1ccc(F)cc12)c1ccccc1
PEG-3 [1]; [3]
  IC50: 25 µM
PEG-3 [1]; [4]
  IC50: 21.7 µM
PEG-3 [2]
  IC50: inactive

## CCN1CCN(c2ncc(C(=O)Nc3cc(Cl)ccc3OC)c3ccccc23)CC1
PEG-3 [1]; [3]
  IC50: 26.6 µM
PEG-3 [1]; [4]
  IC50: 51.4 µM
PEG-3 [2]
  IC50: inactive

## Cc1ccc(-n2cc(-c3ccccc3)c3c(N4CCOCC4)ncnc32)cc1
PEG-3 [1]; [3]
  IC50: 10.8 µM
PEG-3 [1]; [4]
  IC50: 25.7 µM
PEG-3 [2]
  IC50: 18.2 µM

## O=C(Nc1ccccc1)c1nc[nH]c1C(=O)NCCCNC(=O)c1[nH]cnc1C(=O)Nc1ccccc1
PEG-3 [1]; [3]
  IC50: 17.2 µM
PEG-3 [1]; [4]
  IC50: > 100 µM
PEG-3 [2]
  IC50: inactive

## CN(C)c1ccc(C(C(=O)NCc2ccccc2)N(Cc2ccco2)C(=O)c2snc(C(N)=O)c2N)cc1 (centres undefined)
PEG-3 [1]; [3]
  IC50: > 100 µM
PEG-3 [1]; [4]
  IC50: > 100 µM
PEG-3 [2]
  IC50: > 100 µM (inactive)

## CCCN(CCC)CCCNC(=S)Nc1ccc2nc(N3CCCC3)cc(C)c2c1
PEG-3 [1]; [3]
  IC50: 27.5 µM
PEG-3 [1]; [4]
  IC50: 19.1 µM
PEG-3 [2]
  IC50: inactive

## CC(C)(C)c1ccc(/C=N/Nc2ccc(C(=O)O)cc2)cc1
PEG-3 [1]; [3]
  IC50: 36.7 µM
PEG-3 [1]; [4]
  IC50: 28 µM
PEG-3 [2]
  IC50: inactive

## CCN(CC)CCNC(=O)c1ccc(NC(=O)c2cccc(S(=O)(=O)N(C)C3CCCCC3)c2)cc1
PEG-3 [1]; [3]
  IC50: 29.1 µM
PEG-3 [1]; [4]
  IC50: 25.6 µM
PEG-3 [2]
  IC50: inactive

## COc1ccc(C(C(=O)NCC2CCCO2)N(Cc2cccs2)C(=O)c2snc(C(N)=O)c2N)cc1 (centres undefined)
PEG-3 [1]; [3]
  IC50: > 100 µM
PEG-3 [1]; [4]
  IC50: 9.42 µM
PEG-3 [2]
  IC50: inactive

## CN(C)CCNc1ncnc2c1sc1nc(N3CCOCC3)c3c(c12)CC(C)(C)SC3
PEG-3 [1]; [3]
  IC50: 18.1 µM
PEG-3 [1]; [4]
  IC50: 10.6 µM
PEG-3 [2]
  IC50: 14.4 µM

## COCCn1c(C)cc(C(=O)COC(=O)c2ccccc2Br)c1C
PEG-3 [1]; [3]
  IC50: 32.1 µM
PEG-3 [1]; [4]
  IC50: 53.3 µM
PEG-3 [2]
  IC50: inactive
